Assay results from US9095577B2, “Stabilized amine-containing actives in oral film compositions” (MonoSol Rx, LLC, priority 2009, dated 2015).

Assay: Reaction of sweetener with the amine-containing active (gel formation)
Type: physicochemical
Description: It has been discovered that gellation and/or agglomeration of components particularly occurred when sucralose was added to the active ingredient (such as ondansetron). It has been determined that the particular choice of excipients combined together may be important to prevent the formation of undesirable gellation and/or agglomeration. […] It is hypothesized that the amines on the active component may form quaternary salts with the primary alkyl chlorides on the sucralose. Quaternary polymers make good hydrogels, and thus undesirably form a gel-like structure, which is problematic in the processing of film matrices to form films having a uniformity of content.

reaction with the amine-containing active (gel formation): did not react
SMILES: OC[C@H]1O[C@@](CO)(O[C@H]2O[C@H](CO)[C@@H](O)[C@H](O)[C@H]2O)[C@@H](O)[C@@H]1O [sucrose]
